Laboratory results from the CheMixHub viscosity set.

Test: xn = mol fraction of the nth substance listed
Details: 101 kPa

O=S1(=O)CCCC1 + O
viscosity [mPa·s]
Details | 303.15 K | 313.15 K | 323.15 K
x1 = 0.0147 | – | 0.7245 | 0.6051
x1 = 0.02077 | – | 0.74 | 0.63
x1 = 0.0208 | – | 0.753 | 0.629
x1 = 0.04267 | – | – | 0.7
x1 = 0.0701 | – | 1.014 | 0.841
x1 = 0.07103 | – | 1.01 | 0.84
x1 = 0.0744 | – | 1.029 | 0.8536
x1 = 0.0958 | – | 1.152 | 0.9537
x1 = 0.09929 | – | 1.15 | 0.96
x1 = 0.1435 | – | 1.414 | 1.165
x1 = 0.1586 | – | 1.484 | 1.221
x1 = 0.1924 | – | 1.681 | 1.379
x1 = 0.25 | – | 1.928 | –
x1 = 0.29 | – | 2.219 | 1.814
x1 = 0.3022 | 2.856 | 2.267 | 1.85
x1 = 0.4496 | 3.865 | 3.059 | 2.486
x1 = 0.5 | 3.797 | 3.212 | –
x1 = 0.6077 | 4.963 | 3.923 | 3.184
x1 = 0.6106 | 5.004 | 3.962 | 3.217
x1 = 0.749 | 6.085 | 4.807 | 3.896
x1 = 0.75 | 5.994 | 4.743 | –
x1 = 0.7813 | 6.555 | 5.182 | 4.197
x1 = 0.85 | 7.236 | 5.24 | –
